In patent US10806736B2 (priority 2018, dated 2020):
“Also recorded” adds a separate entry of the source.

Key:
[1] = tested on: p53; assay: p53 protein expression by western blotting in macrophages infected with M. tuberculosis; type: cell-based; conditions: rat BMDMs infected with M. tuberculosis H37Ra (one bacterium per cell); 10 μM; compared to Nutlin-3α; β-actin inner control
Text: It is confirmed whether p53 is expressed, when a cell is infected with M. tuberculosis, by subjecting the cell to the compound (K279-1558). Also, in order to analyze the role of p53 expression, the effect of p53 expression is confirmed from macrophages infected with M. tuberculosis. The cells were infected with avirulent M. tuberculosis (Mycobacterium tuberculosis H37Ra) in a ratio of one bacterium per cell by using bone marrow-derived macrophages (BMDMs), which is a rat-derived macrophage, and then the cells were subjected to Nutlin-3α and the compound (K279-1558) in a concentration of 10 μM. Thereafter, the number of M. tuberculosis surviving in the cells was measured.

[2] = tested on: Mycobacterium tuberculosis H37Ra; type: cell-based; conditions: 10 μM; after 24 hours

CCC(SC1=Nc2ccccc2C2=NC(CC(=O)NCCc3ccccc3)C(=O)N12)C(=O)NCc1ccc(C)cc1 (stereo not drawn) [K279-1558]
p53 activity / degree of p53 protein expression (western blotting) [1]: remarkably higher; also recorded: increases remarkably
number of M. tuberculosis surviving in macrophages [2]: dropped sharply; also recorded: decreased sharply

COc1ccc(C2=N[C@@H](c3ccc(Cl)cc3)[C@@H](c3ccc(Cl)cc3)N2C(=O)N2CCNC(=O)C2)c(OC(C)C)c1 [Nutlin-3α, reference compound]
number of M. tuberculosis surviving in macrophages [2]: decreased sharply
